Reference: ChEMBL document CHEMBL1781912, “In search of patterns over physicochemical properties and pharmacological activities for a set of [MCl₂(thiosemicarbazone)] complexes (M=Pt/Pd): support for multiple mechanisms of antichagasic action excluding DNA-bonding in vivo?” (Eur J Med Chem, 2011)

test system: Trypanosoma cruzi; assay: Antichagasic activity against Trypanosoma cruzi Tulahuen 2; format: functional, organism-based

Compound | IC50
O=[N+]([O-])c1ccc(/C=C/C=N/NC(=S)Nc2ccccc2)o1 | 3.6 µM
NC(=S)N/N=C/c1ccc([N+](=O)[O-])o1 | 2.7 µM
NC(=S)N/N=C\C=C\c1ccc([N+](=O)[O-])o1 | 3.5 µM
CNC(=S)N/N=C/C=C/c1ccc([N+](=O)[O-])o1 | 4.5 µM
CCNC(=S)N/N=C/c1ccc([N+](=O)[O-])o1 | 4.9 µM
CCNC(=S)N/N=C/C=C/c1ccc([N+](=O)[O-])o1 | 4.1 µM
CNC(=S)N/N=C/c1ccc([N+](=O)[O-])o1 | 5 µM
O=[N+]([O-])c1ccc(/C=N/NC(=S)Nc2ccccc2)o1 | > 25 µM
CC1CS(=O)(=O)CCN1/N=C/c1ccc([N+](=O)[O-])o1 (centres undefined) [NIFURTIMOX] | 6.1 µM
